Experimental data reported in publication PMC8518382, “Identification of a Bromodomain‐like Region in 15‐Lipoxygenase‐1 Explains Its Nuclear Localization” (Angewandte Chemie (International Ed. in English), 2021).
“And” between values parts separate entries of the source, which are not always exact repeats. Equal entries are not always repeated.

Key:
15-LOX-2 = molecular target: T1, 15-LOX-2 (Homo sapiens, UniProt O15296); experiment: ABP-based ELISA assay with A549 cell lysate, 15-LOX-2; assay type: biochemical
T1 construct: endogenous in cells; host or cells: A549 cell lysate
T1 sequence (O15296 1-676): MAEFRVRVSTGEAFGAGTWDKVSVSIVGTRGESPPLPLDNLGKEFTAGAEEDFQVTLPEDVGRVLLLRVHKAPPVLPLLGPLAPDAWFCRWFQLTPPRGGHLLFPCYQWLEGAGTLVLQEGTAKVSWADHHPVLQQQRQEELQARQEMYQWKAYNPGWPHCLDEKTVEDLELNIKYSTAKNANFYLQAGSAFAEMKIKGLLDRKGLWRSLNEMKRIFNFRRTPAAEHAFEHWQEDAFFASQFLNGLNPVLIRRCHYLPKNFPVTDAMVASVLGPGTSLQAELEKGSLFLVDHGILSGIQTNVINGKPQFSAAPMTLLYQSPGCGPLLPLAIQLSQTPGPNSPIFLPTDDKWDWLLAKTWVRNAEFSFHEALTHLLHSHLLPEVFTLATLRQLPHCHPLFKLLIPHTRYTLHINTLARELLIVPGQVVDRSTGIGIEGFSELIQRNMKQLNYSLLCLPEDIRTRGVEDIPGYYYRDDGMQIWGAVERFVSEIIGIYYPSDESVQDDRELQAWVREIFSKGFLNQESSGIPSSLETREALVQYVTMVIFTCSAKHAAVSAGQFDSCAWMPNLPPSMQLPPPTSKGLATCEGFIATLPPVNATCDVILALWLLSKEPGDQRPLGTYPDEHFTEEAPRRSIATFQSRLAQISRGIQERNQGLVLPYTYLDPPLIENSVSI
Protocol: (§1) A549 cell lysate was treated with a serial dilution of the respective inhibitor. Subsequently, samples were labeled by treatment with 1 μM of Labelox B for 1 min. […] Data are mean±s.d., n≥3 independent experiments. […]
(§2) 1.6. Immunoblotting Analysis […]
(§3) 1.7. ABPP-based LOX inhibitor specificity validation
(§4) A549 cells were lysed by RIPA buffer supplemented with 1x PIC. After sonication and centrifugation, the supernatant was collected, and the protein concentration was determined by a Pierce BCA Protein Assay Kit (Thermo Fisher Scientific, USA). The lysates were then diluted with PBS to 300 ng/µl and stored in -20°C. To label endogenous LOXs with Labelox B under the competition condition, 180 µl diluted lysates were incubated with 200 µl different LOX inhibitor solution (in PBS) with desired concentrations for 18 min to inhibit LOXs activity. Later, 20 µl of a 20 µM Labelox B (in PBS) was added and incubated shortly for 2 min, followed by adding 50 µl of a 0.5 M EDTA to stop the labeling reaction. The reaction mixture was 450 µl in total. Inhibitors and Labelox B were absent in positive and […]
(1 picture or pasted object on this page, not shown here) […]
(§5) negative control, respectively. To detect the competition labeling of Labelox B among different LOXs, a high-binding 96-well plate (Greiner, #M4561) was coated with 5-LOX (#ab169755, Abcam), 12-LOX […]
(1:500 dilution in PBS) for overnight at 4°C. After washing triply with 0.05%PBST, the plate was blocked with 2% (w/v) BSA in PBST. Subsequently, 100 µl of each reaction mixture was added to the LOX-antibody-coated wells. There are four LOX antibodies used for coating. Therefore, in total, 400 µl mixture is needed for each reaction. After one hour of incubation, LOXs were pulled down by antibodies accordingly. Next, 100 µl of HRP-conjugated streptavidin (1:2000 dilution in PBS, Thermo Fisher Scientific, USA) was added to each well to detect the D04 labeled LOXs among precipitated LOXs. […] The absorbance at […]

12-LOX = molecular target: T2, 12-LOX (Homo sapiens, UniProt P18054); experiment: ABP-based ELISA assay with A549 cell lysate, 12-LOX; assay type: biochemical
T2 construct: the endogenous LOXs were captured on an anti‐LOX antibody precoated 96‐well plate; endogenous in cells; host or cells: A549 cell lysate
T2 sequence (P18054 1-663): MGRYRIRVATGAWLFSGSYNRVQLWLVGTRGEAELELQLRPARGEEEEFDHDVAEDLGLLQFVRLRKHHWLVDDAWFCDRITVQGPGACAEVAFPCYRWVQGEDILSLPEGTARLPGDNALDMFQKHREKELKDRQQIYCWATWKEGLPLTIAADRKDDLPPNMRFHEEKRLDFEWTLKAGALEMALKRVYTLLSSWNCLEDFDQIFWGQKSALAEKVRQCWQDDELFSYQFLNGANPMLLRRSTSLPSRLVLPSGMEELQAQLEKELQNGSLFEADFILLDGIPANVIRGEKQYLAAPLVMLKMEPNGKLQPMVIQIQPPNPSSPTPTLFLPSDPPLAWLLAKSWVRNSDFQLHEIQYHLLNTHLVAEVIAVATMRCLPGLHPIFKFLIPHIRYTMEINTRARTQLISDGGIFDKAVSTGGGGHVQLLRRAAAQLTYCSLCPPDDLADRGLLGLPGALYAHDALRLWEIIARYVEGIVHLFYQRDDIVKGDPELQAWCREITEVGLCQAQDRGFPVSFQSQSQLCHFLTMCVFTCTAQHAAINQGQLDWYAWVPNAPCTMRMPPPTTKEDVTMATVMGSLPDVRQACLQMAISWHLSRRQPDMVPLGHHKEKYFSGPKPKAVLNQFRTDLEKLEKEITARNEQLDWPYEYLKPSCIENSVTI
Protocol: as §1, §2, §3, §4, §5
(1:500 dilution in PBS) for overnight at 4°C. After washing triply with 0.05%PBST, the plate was blocked with 2% (w/v) BSA in PBST. Subsequently, 100 µl of each reaction mixture was added to the LOX-antibody-coated wells. There are four LOX antibodies used for coating. Therefore, in total, 400 µl mixture is needed for each reaction. After one hour of incubation, LOXs were pulled down by antibodies accordingly. Next, 100 µl of HRP-conjugated streptavidin (1:2000 dilution in PBS, Thermo Fisher Scientific, USA) was added to each well to detect the D04 labeled LOXs among precipitated LOXs. After washing with PBST, 100 µl of mixed HRP substrate reagent (R&D Systems, Minneapolis, USA) was added, and the colorizing reaction was stopped by adding 100 µl of 1M sulfuric acid. The absorbance at […]

Compound | HillSlope Value (15-LOX-2) | IC50 (15-LOX-2; 1 μM Labelox B) | HillSlope Value (12-LOX) | IC50 (12-LOX; 1 μM Labelox B)
c1ccc2c(c1)SCc1c-2[nH]c2ccccc12 [PD146176] | -0.88 | > 100 µM and 123 µM | -0.98 | ~17 µM and 19.1 µM
O=c1cc(-c2ccccc2)oc2cc(O)c(O)c(O)c12 [Baicalein] | -0.34 | – | -0.41 | –
